This is an account of results in PMC6934184, “Selective DNA-PKcs inhibition extends the therapeutic index of localized radiotherapy and chemotherapy” (The Journal of Clinical Investigation, 2019).

As a reminder, the inhibition is the change of the read-out against control, counted positive when it falls.

The assay addresses T1, LRRK2 G2019S (Homo sapiens, UniProt Q5S007, G2019S).
T1 construct: purchased Thermo Fisher Scientific (Life Technologies) SelectScreen
Description: SelectScreen Adapta. The format is biochemical. The method, boiled down:
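Percent values come from Thermo SelectScreen profiling of NU5455, combining activity and binding assays. CSF1R was run in Z'LYTE format at Km app ATP, and CAMK1 in Adapta format with ATP listed at 10.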

T1 sequence (Q5S007 whole entry G2019S): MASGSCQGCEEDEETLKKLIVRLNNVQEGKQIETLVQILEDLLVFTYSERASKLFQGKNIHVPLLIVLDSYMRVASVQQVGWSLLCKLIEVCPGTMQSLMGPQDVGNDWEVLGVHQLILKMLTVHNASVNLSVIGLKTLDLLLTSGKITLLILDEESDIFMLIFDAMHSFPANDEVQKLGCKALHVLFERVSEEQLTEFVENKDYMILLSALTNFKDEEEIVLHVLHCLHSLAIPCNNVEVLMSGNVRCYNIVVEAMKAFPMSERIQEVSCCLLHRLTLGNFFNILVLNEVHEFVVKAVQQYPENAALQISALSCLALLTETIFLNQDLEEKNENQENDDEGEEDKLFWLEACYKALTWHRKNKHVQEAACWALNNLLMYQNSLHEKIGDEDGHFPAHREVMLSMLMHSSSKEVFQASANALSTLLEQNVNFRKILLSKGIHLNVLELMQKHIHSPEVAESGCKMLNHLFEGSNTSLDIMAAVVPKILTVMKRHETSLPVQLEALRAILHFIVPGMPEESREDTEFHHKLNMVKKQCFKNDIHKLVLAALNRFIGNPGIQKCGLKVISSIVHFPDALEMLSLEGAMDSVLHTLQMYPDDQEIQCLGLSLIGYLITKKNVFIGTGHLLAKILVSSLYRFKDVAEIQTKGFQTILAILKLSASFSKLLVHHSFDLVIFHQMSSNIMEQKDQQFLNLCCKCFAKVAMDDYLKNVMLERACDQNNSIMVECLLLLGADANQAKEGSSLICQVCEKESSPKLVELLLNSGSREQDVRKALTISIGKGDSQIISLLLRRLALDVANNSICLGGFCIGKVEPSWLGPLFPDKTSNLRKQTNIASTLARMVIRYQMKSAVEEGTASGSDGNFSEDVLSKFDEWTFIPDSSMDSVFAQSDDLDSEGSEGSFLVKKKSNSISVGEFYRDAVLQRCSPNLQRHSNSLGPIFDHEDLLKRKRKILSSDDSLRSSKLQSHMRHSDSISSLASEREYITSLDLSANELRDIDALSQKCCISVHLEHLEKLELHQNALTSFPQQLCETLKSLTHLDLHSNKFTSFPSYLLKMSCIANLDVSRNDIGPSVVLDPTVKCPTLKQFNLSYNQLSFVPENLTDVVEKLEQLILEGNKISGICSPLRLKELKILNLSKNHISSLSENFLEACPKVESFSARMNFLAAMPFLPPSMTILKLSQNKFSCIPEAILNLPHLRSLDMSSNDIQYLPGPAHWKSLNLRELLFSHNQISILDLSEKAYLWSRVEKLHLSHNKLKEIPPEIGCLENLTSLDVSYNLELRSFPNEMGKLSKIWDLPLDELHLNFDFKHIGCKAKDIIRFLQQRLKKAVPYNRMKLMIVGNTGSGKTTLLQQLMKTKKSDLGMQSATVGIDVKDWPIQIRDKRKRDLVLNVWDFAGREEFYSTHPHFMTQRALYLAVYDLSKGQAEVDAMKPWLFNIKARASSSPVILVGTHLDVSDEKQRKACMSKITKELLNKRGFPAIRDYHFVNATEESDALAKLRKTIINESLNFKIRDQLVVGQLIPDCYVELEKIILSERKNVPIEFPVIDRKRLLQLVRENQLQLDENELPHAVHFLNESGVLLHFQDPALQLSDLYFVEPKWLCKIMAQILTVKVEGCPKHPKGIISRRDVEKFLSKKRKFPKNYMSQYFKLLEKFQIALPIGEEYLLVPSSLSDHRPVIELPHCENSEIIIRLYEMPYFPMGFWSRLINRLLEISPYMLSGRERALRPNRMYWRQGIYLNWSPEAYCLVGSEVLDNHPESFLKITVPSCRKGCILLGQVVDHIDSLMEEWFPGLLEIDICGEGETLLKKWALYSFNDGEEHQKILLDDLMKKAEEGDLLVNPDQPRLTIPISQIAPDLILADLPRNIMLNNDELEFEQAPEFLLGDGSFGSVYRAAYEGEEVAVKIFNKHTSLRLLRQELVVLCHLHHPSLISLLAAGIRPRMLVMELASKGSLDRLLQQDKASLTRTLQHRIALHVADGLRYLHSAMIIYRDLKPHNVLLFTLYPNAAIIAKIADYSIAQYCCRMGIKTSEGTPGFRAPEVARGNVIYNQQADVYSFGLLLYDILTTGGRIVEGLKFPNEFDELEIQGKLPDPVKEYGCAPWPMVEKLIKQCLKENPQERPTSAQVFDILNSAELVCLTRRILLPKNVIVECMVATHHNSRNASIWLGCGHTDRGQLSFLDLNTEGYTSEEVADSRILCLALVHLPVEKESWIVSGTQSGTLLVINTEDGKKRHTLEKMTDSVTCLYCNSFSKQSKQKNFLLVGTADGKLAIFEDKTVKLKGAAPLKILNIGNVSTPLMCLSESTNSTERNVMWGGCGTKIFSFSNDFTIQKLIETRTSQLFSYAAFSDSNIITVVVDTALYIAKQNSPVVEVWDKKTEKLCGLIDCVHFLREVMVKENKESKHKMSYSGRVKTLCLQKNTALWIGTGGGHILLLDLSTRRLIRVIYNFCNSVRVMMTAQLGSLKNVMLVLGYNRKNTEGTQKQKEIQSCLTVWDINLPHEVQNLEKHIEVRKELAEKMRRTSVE

For `CN(C(=O)CN1CCOCC1)c1ccc2sc3c(-c4cccc5c(=O)cc(N6CC7CCC(C6)O7)oc45)cccc3c2c1` [NU5455], the inhibition at 1 µM stood at 3%.
